Source: patent EP0190597A2, “Retro-inverso analogs of the bradykinin potentiating peptide bpp 5a” (SCLAVO S.p.A., priority 1985, dated 1986)

Target: angiotensin converting enzyme
Assay: Inhibition of angiotensin converting enzyme (method of Cushman and Cheung)
Assay type: biochemical, rabbit
Settings: in vitro; ratio of IC50 versus BPP5a or Glp-Lys-Phe-Ala-Pro-OH
Text: In particular, comparative experiments carried out […] in order to evaluate the ACE inhibitory activity of the compounds of the present invention gave the results reported in following table I (IC50 represents the concentration of the test compound, in µM, which inhibits the angiotensin converting enzyme by 50%. The enzyme employed in this test has been isolated from rabbit lungs according to the method by Cushman and Cheung described in Biochem. Pharmacol. 2Q, 1637, (1971)).

## Glp--Lys-gPhe-mAla-Pro-OH
  IC50 times higher than that of the natural product (BPPSa) or the corresponding uninverted peptide Glp-Lys-Phe-Ala-Pro-OH: more than 1000 times
